Patent publication US11124489B2, “EPAC antagonists” (priority 2017, dated 2021)
Read-outs that look alike come from different tables or passages of the source.

Legend:
[1] = target: T1, EPAC1 (Homo sapiens (Human), UniProt O95398); experiment: biochemical
[2] = target: T1, EPAC1; details: for IC50: read-out: Rap 1b-bGDP EPAC1 IC50
[3] = target: T2, EPAC2 (Mus musculus (Mouse), UniProt Q9EQZ6); experiment: biochemical; details: Rap1b-bGDP EPAC2 IC50, apparent IC50, EPAC2 GEF activity, 20 μM cAMP
Protocol: (§3) In Vitro Evaluation of EPAC2 Inhibition.
(§4) In vitro EPAC GEF activity was acquired as previously described (Zhu et al., Sci. Rep. (2015) 5:9344). Briefly, the assay was performed using 500 nM Rap1b-BODIPY-GDP and 200 nM EPAC proteins in buffer containing 50 mM Tris-HCl pH 7.5, 50 mM NaCl, 5 mM MgCl2, 1 mM DTT, 50 mM GDP and the indicated concentrations of test compounds at room temperature using half-area 96-well plates (Corning Costar 3915). The exchange reaction was monitored using a Spectramax M2 Plate Reader (Molecular Devices) with the excitation/emission wavelengths set at 485/515 nm. The reaction rate constant (kobs) was determined by globally fitting the experimental data to a single exponential equation.

[4] = target: T2, EPAC2; details: for Relative GEF activity, EPAC2-mediated Rap1b-bGDP exchange: in the presence of 20 μM cAMP, figure; for IC50: read-out: Rap1b-bGDP EPAC2 IC50, apparent IC50, EPAC2 GEF activity, 20 μM cAMP
Protocol: as §3, §4

[5] = system: EPAC2; details: read-out: IC50 against EPAC2
Text: (§1) Given the physiological and pathophysiological significance of EPAC proteins, developing pharmacological EPAC modulators has attracted more and more attention. Most EPAC agonists are derivatives of cAMP, while non-cyclic nucleotide ligands usually display EPAC inhibitory activities. Cheng group developed a sensitive and robust fluorescence-based high throughput (HTS) assay, (Tsalkova et al., PloS one, (2012) 7:e30441) and discovered a series of non-cyclic nucleotide EPAC inhibitors (Tsalkova et al., Proc. Natl. Acad. Sci. U.S.A., (2012) 109:18613-18).

[6] = target: T1, EPAC1; details: at 100 μM
Text: as §1

[7] = system: pSTAT3 Y705; details: brain slices, basal state and in response to leptin stimulation
Protocol: (§2) To explore the feasibility of increasing leptin sensitivity by targeting Epac1 using small molecules, organotypic brain slice cultures were prepared from 11-day old wild-type C57BL/6 mice. After 7 days ex vivo culture, treatment of the brain tissue with the Epac specific antagonist ESI-09 led to an enhanced pSTAT3 Y705 level both at the basal state and in response to leptin stimulation. […] These pharmacological data are in agreement with results obtained using Epac1 KO mice and further confirm that inhibition of Epac1 enhances leptin signaling in the hypothalamus. To further investigate the therapeutic potential of this small molecule, wild-type mice were with ESI-09 (50 mg/kg) or vehicle (corn oil) by oral gavage for 3 weeks.

[8] = system: leptin; details: wild-type mice, 50 mg/kg oral gavage for 3 weeks, relative to vehicle
Protocol: as §2

[9] = mice, single IP injection 10 mg/kg
Protocol: In vivo pharmacokinetic studies were performed in four week old female C57BL6/N mice.

[10] = system: OVA-specific IgG1 antibodies; details: mouse, in vivo
[11] = target: T1, EPAC1; details: read-out: IC50 in inhibiting EPAC1; reference compound, Zhu et al., Sci. Rep. (2015); cited from earlier work
[12] = system: R. australia; details: HUVEC cells, vs vehicle
[13] = system: R. australia; details: 10 mg/kg IP daily, lethal dose of R. australia
Protocol: WT C57BL/6 mice were treated with vehicle or ESI-09 (10 mg/kg, IP) daily. Five days after the treatment, mice were challenged with lethal dose of R. australia and continued ESI-09 daily treatment.

[14] = Rap 1b-bGDP EPAC1 IC50, apparent IC50, EPAC1 GEF activity, 20 μM cAMP
[15] = apparent IC50, EPAC1 GEF activity, 20 μM cAMP

SMILES	IC50 [1, 14] [µM]	IC50 [3] [µM]	IC50 ([1]; Rap 1b-bGDP EPAC1 IC50) [µM]	further results
CC(C)(C)c1ccc(-c2cc(C(=O)C(C#N)=NNc3cc(C(F)(F)F)cc(C(F)(F)F)c3)no2)cc1 [Compound 11, N-(3,5-Bis(trifluoromethyl)phenyl)-2-(5-(4-(tert-butyl)phenyl)isoxazol-3-yl)-2-oxoacetohydrazonoyl cyanide]	11.9 ± 6	–	–	–
N#CC(=NNc1cc(Cl)cc(C(F)(F)F)c1)C(=O)c1cc(-c2ccco2)on1 [Compound 26, N-(3-Chloro-5-(trifluoromethyl)phenyl)-2-(5-(furan-2-yl)isoxazol-3-yl)-2-oxoacetohydrazonoyl cyanide]	–	2.2 ± 0.3	3.6 ± 0.2	Rap 1b-bGDP EPAC1 IC50 [2]: low micromolar range; Relative GEF activity, EPAC1-mediated Rap1b-bGDP exchange [2]: Dose-dependent inhibition
CC(C)(C)c1ccc(-c2cc(C(=O)C(C#N)=NNc3ccc(Cl)c(C(F)(F)F)c3)no2)cc1 [Compound 10, N-(4-Chloro-3-(trifluoromethyl)phenyl)-2-oxo-2-(5-(4-(tert-butyl)phenyl)isoxazol-3-yl)acetohydrazonoyl cyanide]	7.3	2.2 ± 0.3	–	Relative GEF activity, EPAC2-mediated Rap1b-bGDP exchange [4]: Dose-dependent inhibition; Rap 1b-bGDP EPAC1 IC50 [2, 15]: low micromolar range
CC(C)(C)c1ccc(-c2cc(C(=O)C(C#N)=NNc3cccc(Cl)c3)no2)cc1 [Compound 7, N-(3-Chlorophenyl)-2-(5-(4-(tert-butyl)phenyl)isoxazol-3-yl)-2-oxoacetohydrazonoyl cyanide]	–	–	8.6	–
N#C/C(=N\Nc1cc(Cl)cc(Cl)c1)C(=O)c1cccc(Cl)c1 [ZL0546, (E)-2-(3-chlorophenyl)-N-(3,5-dichlorophenyl)-2-oxoacetohydrazonoyl cyanide]	> 300	–	–	–
N#CC(NNc1ccc(C(F)(F)F)c(Cl)c1)C(=O)c1cc(-c2ccccc2)on1 (stereo not shown) [Compound 17b]	–	–	–	Rap 1b-bGDP EPAC1 IC50 [2]: low micromolar range; IC50 [2]: 5.1 ± 0.3 µM
COc1ccc(C(=O)/C(C#N)=N/Nc2cc(Cl)cc(Cl)c2)cc1OC [ZL0631, (E)-N-(3,5-dichlorophenyl)-2-(3,4-dimethoxyphenyl)-2-oxoacetohydrazonoyl cyanide]	> 300	–	–	–
Cc1cc(C)c(Nc2ccc(Cl)c(C(F)(F)F)c2)c(C)c1 [MAY0132]	–	–	–	IC50 [5]: 0.4 µM; inhibition against EPAC1 [6]: no significant inhibition
N#CC(=NNc1cc(F)cc(Cl)c1)C(=O)c1noc2ccccc12 [Compound 34, 2-(Benzo[d]isoxazol-3-yl)-N-(3-chloro-5-fluorophenyl)-2-oxoacetohydrazonoyl cyanide]	–	–	18.9 ± 4.9	–
N#CC(=NNc1ccc(Cl)c(C(F)(F)F)c1)C(=O)c1cc(-c2ccc(Cl)cc2)on1 [Compound 20, N-(4-Chloro-3-(trifluoromethyl)phenyl)-2-oxo-2-(5-(4-chlorophenyl)isoxazol-3-yl)acetohydrazonoyl cyanide]	–	–	7.8 ± 2.1	–
N#CC(=NNc1ccc(F)c(Cl)c1)C(=O)c1noc2ccccc12 [Compound 35, 2-(Benzo[d]isoxazol-3-yl)-N-(3-chloro-4-fluorophenyl)-2-oxoacetohydrazonoyl cyanide]	–	–	8.5 ± 3.5	–
N#CC(=NNc1ccc(Cl)c(C(F)(F)F)c1)C(=O)c1noc2ccccc12 [Compound 33, 2-(Benzo[d]isoxazol-3-yl)-N-(4-chloro-3-(trifluoromethyl)phenyl)-2-oxoacetohydrazonoyl cyanide]	2.7 ± 0.3	1.9	–	Relative GEF activity, EPAC2-mediated Rap1b-bGDP exchange [4]: Dose-dependent inhibition; Rap 1b-bGDP EPAC1 IC50 [2, 15]: low micromolar range; Relative GEF activity, EPAC1-mediated Rap1b-bGDP exchange ([2]; in the presence of 20 μM cAMP, figure): Dose-dependent inhibition
N#CC(=NNc1ccc(Cl)c(C(F)(F)F)c1)C(=O)c1cc(-c2ccco2)on1 [Compound 27, N-(4-Chloro-3-(trifluoromethyl)phenyl)-2-(5-(furan-2-yl)isoxazol-3-yl)-2-oxoacetohydrazonoyl cyanide]	4.2 ± 0.9	2.3 ± 0.2	–	Relative GEF activity, EPAC2-mediated Rap1b-bGDP exchange [4]: Dose-dependent inhibition
COc1ccc(-c2cc(C(=O)C(C#N)=NNc3cccc(Cl)c3)no2)cc1 [Compound 22, N-(3-Chlorophenyl)-2-(5-(4-methoxyphenyl)isoxazol-3-yl)-2-oxoacetohydrazonoyl cyanide]	–	–	11.4 ± 2.8	Relative GEF activity, EPAC1-mediated Rap1b-bGDP exchange [2]: Dose-dependent inhibition
N#CC(=NNc1cc(Cl)cc(C(F)(F)F)c1)C(=O)c1noc2ccccc12 [Compound 31, 2-(Benzo[d]isoxazol-3-yl)-N-(3-chloro-5-(trifluoromethyl)phenyl)-2-oxoacetohydrazonoyl cyanide]	4.6 ± 0.8	2.2 ± 0.2	–	–
N#C/C(=N\Nc1cc(Cl)cc(Cl)c1)C(=O)c1ccc(Cl)cc1 [ZL0491, (E)-2-(4-chlorophenyl)-N-(3,5-dichlorophenyl)-2-oxoacetohydrazonoyl cyanide]	> 300	–	–	–
CC(C)(C)c1ccc(-c2cc(C(=O)C(C#N)=NNc3ccc(C(F)(F)F)c(Cl)c3)no2)cc1 [Compound 9, N-(3-Chloro-4-(trifluoromethyl)phenyl)-2-oxo-2-(5-(4-(tert-butyl)phenyl)isoxazol-3-yl)acetohydrazonoyl cyanide]	9 ± 3.9	–	–	–
CC(C)(C)c1cc(C(=O)/C(C#N)=N/Nc2cccc(Cl)c2)no1 [ESI-09]	–	–	–	pSTAT3 Y705 level [7]: enhanced; Plasma leptin [8]: significantly reduced; half-life [9]: 3.5 h; maximal blood level [9]: 42,520 ng/ml; time of maximal blood level [9]: 0.5 h; fold more potent on EPAC2 inhibition than on EPAC1 ([4]; EPAC2 vs EPAC1): 2.5 fold; Relative GEF activity, EPAC2-mediated Rap1b-bGDP exchange [4]: Dose-dependent inhibition; IC50 [4]: 4.4 µM; Relative GEF activity, EPAC1-mediated Rap1b-bGDP exchange [2]: Dose-dependent inhibition; IC50 [2]: 10.8 ± 1.6 µM; level of serum OVA-specific IgG1 antibodies [10]: significantly higher; IC50 [11]: 10.8 µM; number of intracellular R. australia [12]: dramatically reduced; share of treatment group showing sign of sickness [13]: 10%
N#CC(=NNc1cc(Cl)cc(C(F)(F)F)c1)C(=O)c1cc(-c2ccccc2)on1 [Compound 13, N′-(3-Chloro-5-(trifluoromethyl)phenyl)-2-oxo-2-(5-phenylisoxazol-3 yl)acetohydrazonoyl cyanide]	–	–	9.5 ± 1.2	–
N#CC(=NNc1cccc(Cl)c1)C(=O)c1noc2ccccc12 [Compound 30, 2-(Benzo[d]isoxazol-3-yl)-N-(3-chlorophenyl)-2-oxoacetohydrazonoyl cyanide]	–	–	13.2	–
N#CC(=NNc1cc(C(F)(F)F)cc(C(F)(F)F)c1)C(=O)c1noc2ccccc12 [Compound 36, 2-(Benzo[d]isoxazol-3-yl)-N-(3,5-bis(trifluoromethyl)phenyl)-2-oxoacetohydrazonoyl cyanide]	6.7 ± 0.7	–	–	–
COc1ccc(-c2cc(C(=O)C(C#N)=NNc3ccc(Cl)c(C(F)(F)F)c3)no2)cc1 [Compound 23, N-(4-Chloro-3-(trifluoromethyl)phenyl)-2-oxo-2-(5-(4-methoxyphenyl)isoxazol-3-yl)acetohydrazonoyl cyanide]	< 8	4.5 ± 1	–	–
N#CC(=NNc1cc(C(F)(F)F)cc(C(F)(F)F)c1)C(=O)c1cc(-c2ccccc2)on1 [Compound 15, N-(3,5-Bis(trifluoromethyl)phenyl)-2-oxo-2-(5-phenylisoxazol-3-yl)acetohydrazonoyl cyanide]	–	3.3 ± 0.8	7.2 ± 0.7	–
N#CC(=NNc1ccc(C(F)(F)F)c(Cl)c1)C(=O)c1noc2ccccc12 [Compound 32, 2-(Benzo[d]isoxazol-3-yl)-N-(3-chloro-4-(trifluoromethyl)phenyl)-2-oxoacetohydrazonoyl cyanide]	3 ± 0.3	2.2 ± 0.4	–	Rap 1b-bGDP EPAC1 IC50 [2, 15]: low micromolar range
